This is an account of results in patent US20050256103A1, “Indole derivative having piperidine ring” (Eisai Co., Ltd., priority 2004, published 2005).

One assay addresses T1, serotonin 1A receptor (Mus musculus, UniProt Q64264).
T1 construct: into the rectum of CD-1 (ICR) male mice (25-45 g); from tissue; host or cells: living CD-1 (ICR) male mice (in vivo)
T1 sequence (Q64264 1-421): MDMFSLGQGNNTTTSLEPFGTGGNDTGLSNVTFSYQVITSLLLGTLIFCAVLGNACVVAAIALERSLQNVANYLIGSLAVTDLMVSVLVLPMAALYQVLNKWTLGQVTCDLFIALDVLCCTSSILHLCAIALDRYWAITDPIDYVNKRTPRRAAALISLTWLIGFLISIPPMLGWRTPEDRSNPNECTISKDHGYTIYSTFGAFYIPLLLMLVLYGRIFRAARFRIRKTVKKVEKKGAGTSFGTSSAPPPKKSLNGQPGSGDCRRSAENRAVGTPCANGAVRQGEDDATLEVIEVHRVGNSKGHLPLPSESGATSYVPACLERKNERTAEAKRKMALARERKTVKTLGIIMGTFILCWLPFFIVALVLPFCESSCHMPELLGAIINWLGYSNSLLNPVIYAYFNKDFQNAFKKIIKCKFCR
As to the kind of experiment: Antagonistic effect on serotonin 1A receptor agonist (8-OH-DPAT)-induced hypothermia in mouse. Format: in vivo. As to conditions: CD-1 (ICR) male mice; inhibition of hypothermia by 8-OH-DPAT 0.5 mg/kg sc; test substance 15 minutes before agonist. The procedure: (1) A thermistor probe was inserted at a depth of approximately 2 cm into the rectum of CD-1 (ICR) male mice (25-45 g), so as to measure the body temperature thereof. Body temperature is decreased by subcutaneous administration of serotonin 1A receptor agonist (8-hydroxy-dipropylaminotetralin (8-OH-DPAT) 0;5 mg/kg. Since a serotonin 1A antagonist inhibits such action, the antagonistic effect of a test substance to a serotonin 1A receptor was evaluated using the inhibitory effect of the hypothermia as an index. The test results are shown in Table 2 indicated below. A test substance was administered 15 minutes before the administration of the serotonin 1A agonist. A serotonin 1A partial agonist alone decreases the body temperature, depending on the degree of the agonistic action thereof. In addition, it has a weak antagonistic effect on 8-OH-DPAT-induced hypothermia.

A further assay addresses T2, 5-HT1A receptor (Sus scrofa, UniProt A0A4X1UTF5).
T2 construct: Swine hippocampus was homogenized in a 50 mM Tris-Hcl buffer; from tissue; host or cells: swine hippocampus, membrane fraction
T2 sequence (A0A4X1UTF5 1-422): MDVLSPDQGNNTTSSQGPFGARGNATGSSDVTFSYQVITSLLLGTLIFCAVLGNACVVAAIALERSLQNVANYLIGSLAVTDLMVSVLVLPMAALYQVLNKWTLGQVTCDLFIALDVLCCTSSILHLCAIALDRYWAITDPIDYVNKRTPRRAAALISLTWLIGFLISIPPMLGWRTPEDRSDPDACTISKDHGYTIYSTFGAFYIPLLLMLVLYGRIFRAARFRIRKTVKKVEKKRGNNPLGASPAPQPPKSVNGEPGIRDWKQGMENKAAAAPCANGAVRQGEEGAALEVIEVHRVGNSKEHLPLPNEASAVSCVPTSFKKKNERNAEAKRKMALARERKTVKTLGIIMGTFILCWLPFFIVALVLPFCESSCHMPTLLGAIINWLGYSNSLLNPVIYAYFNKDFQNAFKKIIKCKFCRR
As to the kind of experiment: Affinity for serotonin 1A receptor: inhibition of [3H]MPPF binding in swine hippocampal membrane fraction. As to conditions: for IC50: swine hippocampal membrane, 37°C 30 min; for L/H ratio: low affinity IC50 divided by high affinity IC50, 1 or smaller = no intrinsic activity, 2 or greater = intrinsic activity. The source says:
(1) The affinity of a test substance for a 5-HT1A receptor was examined by an inhibition experiment, in which the inhibitory effect of the test substance against the binding of [^3H]-4-(2′-methoxy)phenyl-1-(2′-(N-2″-pyridinyl)-p-fluorobenzamido)ethyl-piperazine (MPPF) that selectively binds to the 5-HT1A receptor in a swine hippocampal membrane fraction was examined. The 5-HT1A receptor that is a G-protein binding receptor becomes a G-protein binding state with addition of MgCl2. In contrast, it becomes a G-protein non-binding state with addition of guanylylimido diphosphate (Gpp(NH)p). […] Thus, both the affinity of a test substance to the receptor that was in a state of not binding to the G-protein and the affinity of the test substance to the receptor that was in a state of binding to the G-protein were obtained. Then, the obtained values were compared to each other, so as to estimate the level of the intrinsic activity of the test substance. Theoretically, when the value (L/H) obtained by dividing the affinity of a test substance to the receptor that is in a low affinity state (IC50 value) by the affinity of a test substance to the receptor that is in a high affinity state (IC50 value) is 1 or less, the intrinsic activity thereof is zero. The greater this value, the higher the intrinsic activity that can be obtained.
Swine hippocampus was homogenized in a 50 mM Tris-Hcl buffer (pH 7.4; hereinafter referred to as buffer A) that had been cooled on ice. The suspension was centrifuged at 40,000×g for 15 minutes. The obtained pellet was suspended in buffer solution A, and the thus obtained solution was then centrifuged at 40,000×g for 15 minutes. The same operation was repeated 2 or 3 times. The finally obtained pellet was suspended in a buffer solution A in an amount 10 times the wet weight of the swine hippocampus, so as to obtain a membrane fraction. The obtained membrane fraction was stored at −80° C. until use.
A mixture (0.5 ml) used for incubation comprised an appropriate amount of the membrane fraction, a test substance with a desired concentration, MgCl2 (final concentration: 10 mM) or Gpp(NH)p (final concentration: 1 mM), [^3H]MPPF (final concentration: 0.5 nM), dimethyl sulfoxide (final concentration: 1% (v/v)), and a 50 mM Tris-Hcl buffer (pH 7.4). The reaction was initiated with addition of the membrane fraction, and the mixture was incubated at 37° C. for 30 minutes. After completion of the incubation, the mixture was subjected to vacuum filtration with a glass filter, using Cell Harvester. The filter was washed with buffer solution A that had been cooled on ice. Thereafter, radioactivity binding to the receptor was measured with a liquid scintillation counter. Non-specific binding was defined as binding detected in the presence of 10 μM WAY-100,635.

The mark [1] stands for this setting: [3H]MPPF 0.5 nM, receptor in high affinity (G-protein binding, MgCl2 10 mM) state, read-out: High affinity IC50.
[2] abbreviates: [3H]MPPF 0.5 nM, receptor in low affinity (G-protein non-binding, Gpp(NH)p 1 mM) state, read-out: Low affinity IC50.

Structures are written as SMILES. Like-named read-outs stand apart in the source and are kept apart here.

By IC50 is commonly meant the concentration that gives 50% inhibition. For `COc1ccc2c(C)noc2c1CCN1CCC(n2ccc3ccc(C(N)=O)cc32)CC1` [Compound 1, 1-{1-[2-(6-methoxy-3-methylbenz[d]isoxazol-7-yl)ethyl]piperidin-4-yl}-1H-indole-6-carboxamide], the ED50 at serotonin 1A receptor is 0.3 mg/kg, sc. Further, the IC50 amounted to 0.16 nM at 5-HT1A receptor (High affinity IC50, [3H]MPPF 0.5 nM, receptor in high affinity (G-protein binding, MgCl2 10 mM) state) and 0.26 nM at 5-HT1A receptor (Low affinity IC50, [3H]MPPF 0.5 nM, receptor in low affinity (G-protein non-binding, Gpp(NH)p 1 mM) state). Also, the L/H ratio at 5-HT1A receptor is given as 1.6.

As to `COc1cc2onc(C)c2cc1CCN1CCC(n2ccc3ccc(C(N)=O)cc32)CC1` [Compound 2, 1-{1-[2-(6-methoxy-3-methylbenzo[d]isoxazol-5-yl)ethyl]piperidin-4-yl}-1H-indole-6-carboxamide], the ED50 on serotonin 1A receptor was 0.4 mg/kg, sc. The IC50 turned out to be 0.27 nM at 5-HT1A receptor (setting [1]) and 0.35 nM at 5-HT1A receptor (setting [2]). Moreover, the L/H ratio at 5-HT1A receptor amounted to 1.3.

On to `CCc1nc2ccc(OC)c(CCN3CCC(n4ccc5ccc(C(N)=O)cc54)CC3)c2o1` [Compound 5], for which the ED50 at serotonin 1A receptor is 0.24 mg/kg, sc. Also, the IC50 at 5-HT1A receptor (setting [1]) turned out to be 0.57 nM; at 5-HT1A receptor (setting [2]), 0.45 nM. Besides, at 5-HT1A receptor, the L/H ratio is listed as 0.8.

Take `CCc1nc2cc(CCN3CCC(n4ccc5ccc(C(N)=O)cc54)CC3)c(OC)cc2o1` [Compound 6, 1-{1-[2-(2-ethyl-6-methoxybenzoxazol-5-yl)ethyl]piperidin-4-yl}-1H-indole-6-carboxamide]: the ED50 at serotonin 1A receptor is 0.35 mg/kg, sc. In addition, the half-inhibitory concentration (IC50) at 5-HT1A receptor (setting [1]) and at 5-HT1A receptor (setting [2]) was 0.2 nM in each case. Further, the L/H ratio on 5-HT1A receptor is on record as 1.

Take `COc1ccc2oc(C)nc2c1CCN1CCC(n2ccc3ccc(C(N)=O)cc32)CC1` [Compound 7, 1-{1-[2-(5-methoxy-2-methylbenzoxazol-4-yl)ethyl]piperidin-4-yl)-1H-indole-6-carboxamide]: the ED50 at serotonin 1A receptor was 0.38 mg/kg, sc. Also, the IC50 stood at 0.41 nM at 5-HT1A receptor (setting [1]) and 0.3 nM at 5-HT1A receptor (setting [2]). For the same compound, the L/H ratio at 5-HT1A receptor was determined as 0.7.

For the compound `COc1cc2nc(C)oc2cc1CCN1CCC(n2ccc3ccc(C(N)=O)cc32)CC1` [Compound 8, 1-{1-[2-(5-methoxy-2-methylbenzoxazol-6-yl)ethyl]piperidin-4-yl}-1H-indole-6-carboxamide], on serotonin 1A receptor, the ED50 was 0.07 mg/kg, sc. The IC50 at 5-HT1A receptor (setting [1]) was 0.22 nM; on 5-HT1A receptor (setting [2]), 0.23 nM. Also, the L/H ratio at 5-HT1A receptor is 1.

For `COc1cc2c(cc1CCN1CCC(n3ccc4ccc(C(N)=O)cc43)CC1)C(=O)N(C)CCO2` [Compound 9, 1-{1-[2-(8-methoxy-4-methyl-5-oxo-2,3,4,5-tetrahydrobenzo[f][1,4]oxazepin-7-yl)ethyl]piperidin-4-yl}-1H-indole-6-carboxamide], the ED50 at serotonin 1A receptor is given as 0.3 mg/kg, sc. Besides, the IC50 came to 0.17 nM at 5-HT1A receptor (setting [1]) and 0.13 nM on 5-HT1A receptor (setting [2]). The L/H ratio at 5-HT1A receptor is on record as 0.8.

Turning to `COc1ccc2c(c1CCN1CCC(n3ccc4ccc(C(N)=O)cc43)CC1)OC(C)(C)CC2=O` [Compound 22, 1-{1-[2-(7-methoxy-2,2-dimethyl-4-oxochroman-8-yl)ethyl]piperidin-4-yl}-1H-indole-6-carboxamide], the ED50 on serotonin 1A receptor is on record as 0.1 mg/kg, sc. Further, the figures for the IC50 at 5-HT1A receptor (setting [1]) and at 5-HT1A receptor (setting [2]) were 0.13 nM and 0.1 nM, respectively. On 5-HT1A receptor, the L/H ratio was 0.8.

Take `COc1cc2c(cc1CCN1CCC(n3ccc4ccc(C(N)=O)cc43)CC1)C(=O)CC(C)(C)O2` [Compound 24, 1-{1-[2-(7-methoxy-2,2-dimethyl-4-oxochroman-6-yl)ethyl]piperidin-4-yl}-1H-indole-6-carboxamide]: the ED50 on serotonin 1A receptor is on record as 0.3 mg/kg, sc. For the same compound, the results for the IC50 on 5-HT1A receptor (setting [1]) and at 5-HT1A receptor (setting [2]) were 0.22 nM and 0.17 nM, respectively. In addition, the L/H ratio on 5-HT1A receptor is 0.8.

Consider `COc1ccc2c(c1CCN1CCC(n3ccc4ccc(C(N)=O)cc43)CC1)CCC2=O` [Compound 25, 1-{1-[2-(5-methoxy-1-oxoindan-4-yl)ethyl]piperidin-4-yl}-1H-indole-6-carboxamide], for which the ED50 at serotonin 1A receptor was 0.1 mg/kg, sc. Moreover, the IC50 worked out at 0.18 nM at 5-HT1A receptor (setting [1]) and 0.16 nM on 5-HT1A receptor (setting [2]). Further, the L/H ratio at 5-HT1A receptor is 0.9.

With `COc1cc2c(cc1CCN1CCC(n3ccc4ccc(C(N)=O)cc43)CC1)C(=O)CC2` [Compound 26, 1-{1-[2-(6-methoxy-3-oxoindan-5-yl)ethyl]piperidin-4-yl}-1H-indole-6-carboxamide], at serotonin 1A receptor, the ED50 was 0.25 mg/kg, sc. For the same compound, the IC50 worked out at 0.16 nM at 5-HT1A receptor (setting [1]) and 0.2 nM on 5-HT1A receptor (setting [2]). Further, at 5-HT1A receptor, the L/H ratio is listed as 1.3.

As to `COc1ccc2sc(C)nc2c1CCN1CCC(n2ccc3ccc(C(N)=O)cc32)CC1` [Compound 27, 1-{1-[2-(5-methoxy-2-methylbenzothiazol-4-yl)ethyl]piperidin-4-yl}-1H-indole-6-carboxamide], the ED50 at serotonin 1A receptor is 0.42 mg/kg, sc. Moreover, the IC50 on 5-HT1A receptor (setting [1]) stood at 0.23 nM; on 5-HT1A receptor (setting [2]) it was 0.26 nM. The L/H ratio at 5-HT1A receptor is 1.1.

For the compound `COc1cc2nc(C)sc2cc1CCN1CCC(n2ccc3ccc(C(N)=O)cc32)CC1` [Compound 28, 1-{1-[2-(5-methoxy-2-methylbenzothiazol-6-yl)ethyl]piperidin-4-yl}-1H-indole-6-carboxamide], the ED50 on serotonin 1A receptor is 0.02 mg/kg, sc. Further, the IC50 worked out at 0.14 nM at 5-HT1A receptor (setting [1]) and 0.19 nM at 5-HT1A receptor (setting [2]). Also, the L/H ratio on 5-HT1A receptor is reported as 1.4.

As to `COc1ccc2ncccc2c1CCN1CCC(n2ccc3ccc(C(N)=O)cc32)CC1` [Compound 30, 1-{1-[2-(6-methoxyquinolin-5-yl)ethyl]piperidin-4-yl}-1H-indole-6-carboxamide], the ED50 at serotonin 1A receptor was 0.62 mg/kg, sc. Also, the results for the IC50 at 5-HT1A receptor (setting [1]) and on 5-HT1A receptor (setting [2]) were 0.2 nM and 0.19 nM, respectively. In addition, on 5-HT1A receptor, the L/H ratio stood at 1.
